In patent publication US12637461B2, “Compounds for the activation of AMPK” (PFIZER INC., priority 2022, dated 2026):

Molecular target: T1, human AMPK α2β2γ3 (Homo sapiens, UniProt O43741+P54646+Q9UGI9)
T1 construct: expressed in transfected cells; host or cells: HEK293AD cells, MaxCyte bulk electroporation
Test: Primary cellular assay: γ3 associated phospho-Thr172 AMPK detection (custom pAMPK Surefire AlphaLISA) in α2β2γ3 bulk transiently transfected HEK293 cells
Format: cell-based
Details: activation of human AMPK α2β2γ3 (γ3 pThr172 AMPK signal) in transiently transfected HEK293 cells, 20 minutes compound incubation; for Emax: 20 min, read-out: Assay GMean Asy. Max (%); for Emax / Assay GMean Asy. Max (%): geometric mean of the asymptotic max; for EC50: geometric mean EC50, read-out: Assay GMean EC50
Procedure: Primary Cellular Assay—γ3 Associated Phospho-Thr172 AMPK Detection in α2β2γ3 Bulk Transiently Transfected HEK293 Cells
The cellular potencies of the compounds were evaluated using a custom pAMPK Surefire AlphaLISA designed to assess γ3 associated phospho-Thr172 AMPK and modulation by small molecules in AMPK α2β2γ3 transiently transfected HEK293 cells.
A pAMPK Surefire AlphaLISA (PE-ASLU-PAMPK) assay available through Perkin Elmer was modified to selectively assess γ3 pThr172 AMPK content (as opposed to total pThr172 AMPK) by labeling a γ3 antibody with a CaptSure™ tag and substituting it for the total α1c/α2 AMPK labeled antibodies in the kit. In the modified assay, the overall abundance of γ3 AMPK is recognized by the CaptSure γ3 antibody and the phosphorylated AMPK is recognized by biotinylated pThr172 antibody. Subsequent reactivity with streptavitin donor beads and anti CaptSure conjugated acceptor beads brings the molecules into close proximity. Upon excitation at 680 nm, the donor bead converts ambient oxygen to a more excited singlet state which reacts with the acceptor bead and emits light at 520 to 620 nm. The intensity of the signal is proportional to the level of γ3 associated pThr172 AMPK phosphorylation.
In short, AMPK-α2+β2+γ3 MaxCyte bulk-transfected HEK293AD cells were thawed in growth media (DMEM High glucose+10% FBS) in a collagen-coated T150 flask and the cells were allowed to adhere and grow overnight in a 37° C. incubator. The following day, the cells were harvested and resuspended in plating medium (DMEM Low glucose+10% FBS) at a concentration of 100,000 cells per mL and 50 μL of this cell suspension was added to all wells of a 384-well plate using a Multidrop Combi. The cells were allowed to adhere and grow for 2 days in a 37° C. incubator. On assay day, compounds were diluted in 100% dimethyl sulfoxide (DMSO) in a 11 dose, half log dilution scheme and spotted in the cell plates at 1000× the final concentration. Compound incubations were performed in plating media for 20 minutes. Cells were washed with PBS, lysed and the signal was generated by subsequent additions of RB1 reagent from the kit, 1:1000 CaptSure γ3 labeled antibody in 1× immunoassay buffer, Anti-CaptSure acceptor beads and Streptavitin donor beads at final concentration of […]. The γ3 pThr172 AMPK signal was developed using EnVision™ multilabel reader (Perkin Elmer) using Alphascreen settings. The fluorescence emission was used to calculate the % effect relative to the HPE (30 μM) and ZPE (DMSO). EC50 curves were generated with the ActivityBase software using the XLfit model 205 to determine EC50 and Emax values.
For screening purposes, bulk AMPK-α2+β2+γ3 MaxCyte bulk transfection into HEK293AD cells were generated to support SAR screening as follows.
HEK293AD cells were seeded into 10 flasks at 2.7×10^7 cells per flask. The following day 12 mL of Trypl E dissociation reagent were added to each flask to lift the cells and the cells were then spun at 300×g for 5 minutes. Cells were washed once in MaxCyte EP buffer and then resuspended in MaxCyte EP buffer at 1×10^8 cells per mL. For transfection, 500×10^6 cells in 500 μl MaxCyte EP buffer were placed in a CL1.1 Processing Assembly (electroporation cell) with 1 mg/mL ([…]) of each of the plasmids pcDNA3.1(+)-human AMPK alpha 2, pcDNA3.1(+)-human AMPK beta 2 and pcDNA3.1(+)-human AMPK gamma 3 and the electroporation was carried out on the MaxCyte STX using the HEK293 electroporation protocol. Following electroporation, cells were transferred to a T175 flask containing growth medium (DMEM High glucose+10% FBS) and allowed to recover for 25 minutes, then the cells were resuspended to final volume of 900 mL and distributed into 6XT175 flasks and allowed to adhere and grow overnight in a 37° C. incubator. […]

T1 sequence (P54646 whole entry): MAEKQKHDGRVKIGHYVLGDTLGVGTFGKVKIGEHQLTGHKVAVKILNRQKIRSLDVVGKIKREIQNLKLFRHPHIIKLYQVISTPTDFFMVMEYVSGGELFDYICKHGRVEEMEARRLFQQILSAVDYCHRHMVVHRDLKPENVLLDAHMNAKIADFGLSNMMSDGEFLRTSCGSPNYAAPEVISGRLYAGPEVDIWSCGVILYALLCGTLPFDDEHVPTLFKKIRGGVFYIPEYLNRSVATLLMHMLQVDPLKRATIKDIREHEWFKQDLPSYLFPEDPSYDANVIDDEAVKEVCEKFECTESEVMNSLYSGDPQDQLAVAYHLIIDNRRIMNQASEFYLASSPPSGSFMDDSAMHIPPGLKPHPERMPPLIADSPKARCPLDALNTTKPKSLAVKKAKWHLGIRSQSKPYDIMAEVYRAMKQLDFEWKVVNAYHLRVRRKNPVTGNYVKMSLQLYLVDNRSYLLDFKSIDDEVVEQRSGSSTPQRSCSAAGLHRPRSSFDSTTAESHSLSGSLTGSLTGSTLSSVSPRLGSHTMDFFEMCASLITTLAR
T1 sequence (O43741 whole entry): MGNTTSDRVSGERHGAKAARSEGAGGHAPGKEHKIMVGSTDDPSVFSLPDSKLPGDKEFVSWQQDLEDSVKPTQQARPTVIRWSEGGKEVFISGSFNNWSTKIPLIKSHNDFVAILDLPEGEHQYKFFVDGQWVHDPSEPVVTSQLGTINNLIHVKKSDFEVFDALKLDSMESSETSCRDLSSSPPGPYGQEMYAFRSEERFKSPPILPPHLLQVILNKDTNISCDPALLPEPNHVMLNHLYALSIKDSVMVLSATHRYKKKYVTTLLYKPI
T1 sequence (Q9UGI9 whole entry): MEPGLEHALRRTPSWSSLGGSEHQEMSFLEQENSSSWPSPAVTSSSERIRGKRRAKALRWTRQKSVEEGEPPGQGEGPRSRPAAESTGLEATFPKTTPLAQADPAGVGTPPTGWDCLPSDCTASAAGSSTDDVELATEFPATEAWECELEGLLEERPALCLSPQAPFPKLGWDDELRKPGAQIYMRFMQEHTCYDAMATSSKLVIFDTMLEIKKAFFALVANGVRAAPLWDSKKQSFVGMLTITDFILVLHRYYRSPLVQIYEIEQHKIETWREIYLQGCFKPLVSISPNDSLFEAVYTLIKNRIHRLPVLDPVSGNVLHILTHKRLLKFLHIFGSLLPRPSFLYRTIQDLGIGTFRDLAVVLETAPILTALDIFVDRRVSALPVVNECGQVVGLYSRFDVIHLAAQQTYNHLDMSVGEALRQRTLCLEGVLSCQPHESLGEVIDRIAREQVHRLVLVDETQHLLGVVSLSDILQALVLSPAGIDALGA

Row | Emax | EC50 | Assay GMean Asy. Max (%) | SMILES
1 | – | 0.0476 µM | 80.4% | CN1CCC(N2CC(Nc3ncc4c(c3F)[C@@](C)(c3cccc(Cl)c3F)CN(c3nn(C)cc3F)C4=O)C2)C1=O (single isomer, unassigned) [compound 70]
2 | 139% | 0.0198 µM | – | CN1CCCC(N2CC(Nc3ncc4c(c3F)[C@@](C)(c3cccc(Cl)c3F)CN(c3nn(C)cc3F)C4=O)C2)C1=O (single isomer, unassigned) [compound 71]
3 | 123% | > 1.06 µM | – | CC1(c2cccc(Cl)c2F)CN(c2ncccc2F)C(=O)c2cnc(NC3CN(C(=O)[C@@H]4C[C@@H]4F)C3)nc21 (single isomer, unassigned) [compound 81]
4 | 141% | 0.162 µM | – | COC[C@H](C)NC(=O)N1CC(Nc2ncc3c(n2)C(C)(c2cccc(Cl)c2F)CN(c2ncccc2F)C3=O)C1 (single isomer, unassigned) [compound 85]
5 | 106% | 0.0346 µM | – | CC1(c2cccc(Cl)c2F)CN(c2ncccc2F)C(=O)c2cnc(NC3CN(C(=O)N4CCC[C@@H]4CO)C3)nc21 (single isomer, unassigned) [compound 86]
6 | 213% | 0.0716 µM | – | CC1(c2cccc(Cl)c2F)CN(c2ncccc2F)C(=O)c2cnc(NC3CN(C(=O)N4C[C@@H]5C[C@H]4CO5)C3)nc21 (single isomer, unassigned) [compound 88]
7 | – | 0.15 µM | 25.8% | Cn1cnc(N2C[C@](C)(c3cccc(Cl)c3F)c3c(cnc(NC4CN(C(=O)C5CC5C(F)(F)F)C4)c3F)C2=O)c1 (single isomer, unassigned) [compound 97]
8 | 51.4% | 0.0259 µM | – | CC1(c2ccc(F)c(Cl)c2F)CN(c2ccc(N)cn2)C(=O)c2cnc(NC3CN(C(=O)[C@@H]4C[C@@H]4F)C3)c(F)c21 (single isomer, unassigned) [compound 102]
9 | 113% | 0.0275 µM | – | CC1(c2ccc(F)c(Cl)c2F)CN(c2ccc(CO)cn2)C(=O)c2cnc(NC3CN(C(=O)N4C[C@@H]5C[C@H]4CO5)C3)c(F)c21 (single isomer, unassigned) [compound 103]
10 | 49.8% | 0.0321 µM | – | Cc1c(F)ccc(C2(C)CN(c3ccc(N)cn3)C(=O)c3cnc(NC4CN(C(=O)[C@@H]5C[C@@H]5F)C4)c(F)c32)c1F (single isomer, unassigned) [compound 104]

Second part, the compound before the results:

Row | SMILES | Emax | EC50 | Assay GMean Asy. Max (%)
11 | CN1CCC(N2CC(Nc3ncc4c(c3F)[C@@](C)(c3cccc(Cl)c3F)CN(c3nn(C)cc3F)C4=O)C2)C1=O (single isomer, unassigned) [compound 69] | 81.6% | 0.0292 µM | –
12 | CN1CCCC(N2CC(Nc3ncc4c(c3F)[C@@](C)(c3cccc(Cl)c3F)CN(c3nn(C)cc3F)C4=O)C2)C1=O (single isomer, unassigned) [compound 72] | – | 0.0423 µM | 121%
13 | CC1(c2cccc(Cl)c2F)CN(c2ccc3cncn3c2)C(=O)c2cnc(NC3CN(C(=O)[C@@H]4C[C@@H]4F)C3)nc21 (single isomer, unassigned) [compound 79] | 121% | 2.83 µM | –
14 | CC1(c2cccc(Cl)c2F)CN(c2ncccc2F)C(=O)c2cnc(NC3CN(C(=O)[C@@H]4CC45CCOCC5)C3)nc21 (single isomer, unassigned) [compound 82] | 218% | 0.107 µM | –
15 | Cn1cc(F)c(N2C[C@](C)(c3cccc(Cl)c3F)c3c(cnc(NC4CN(C(=O)C5CCC(F)(F)CN5)C4)c3F)C2=O)n1 (single isomer, unassigned) [compound 95] | 78% | 0.125 µM | –
16 | Cn1cc(F)c(N2C[C@](C)(c3cccc(Cl)c3F)c3c(cnc(NC4CN(C(=O)C5CCC(F)(F)CN5)C4)c3F)C2=O)n1 (single isomer, unassigned) [compound 96] | – | 0.0605 µM | 85.5%
17 | Cn1cnc(N2C[C@](C)(c3cccc(Cl)c3F)c3c(cnc(NC4CN(C(=O)C5CC5C(F)(F)F)C4)c3F)C2=O)c1 (single isomer, unassigned) [compound 98] | – | 0.114 µM | 66.2%
